Measurements as given in ChEMBL document CHEMBL3045033, “Synthesis of new potential anticancer agents based on 4-thiazolidinone and oleanane scaffolds” (Med Chem Res, 2012).
Several values for one entry are separate records, joined by “and”; a condition that tells them apart may be missing. Equal values may be shown once.

Legend:
Type in all cases: functional
HL-60(TB) = experiment: Cytotoxicity against Homo sapiens (human) HL-60(TB) cells after 48 hr by SRB assay; settings: HL-60, 48 h
K562 [1] = experiment: Cytotoxicity against Homo sapiens (human) K562 cells after 48 hr by SRB assay; settings: K562, 48 h
SF-268 [2] = experiment: Cytotoxicity against Homo sapiens (human) SF268 cells after 48 hr by SRB assay; settings: SF-268, 48 h
CAKI-1 = experiment: Cytotoxicity against Homo sapiens (human) Caki1 cells after 48 hr by SRB assay; settings: CAKI-1, 48 h
NCI-H522 [3] = experiment: Cytotoxicity against Homo sapiens (human) NCI-H522 cells after 48 hr by SRB assay; settings: NCI-H522, 48 h; for CC50: read-out: pLC50 (the source's name) (converted)
SN12C = experiment: Cytotoxicity against Homo sapiens (human) SN12C cells after 48 hr by SRB assay
A549 = experiment: Cytotoxicity against Homo sapiens (human) A549 cells after 48 hr by SRB assay; settings: A549, 48 h
UACC-62 = experiment: Cytotoxicity against Homo sapiens (human) UACC62 cells after 48 hr by SRB assay; settings: UACC-62, 48 h
SK-MEL-2 = experiment: Cytotoxicity against Homo sapiens (human) SK-MEL-2 cells after 48 hr by SRB assay; settings: SK-MEL-2, 48 h
IGROV-1 [4] = experiment: Cytotoxicity against Homo sapiens (human) IGROV1 cells after 48 hr by SRB assay
OVCAR-8 = experiment: Cytotoxicity against Homo sapiens (human) OVCAR8 cells after 48 hr by SRB assay; settings: OVCAR-8, 48 h
KM12 = experiment: Cytotoxicity against Homo sapiens (human) KM12 cells after 48 hr by SRB assay; settings: KM12, 48 h
RXF 393 [5] = experiment: Cytotoxicity against Homo sapiens (human) RXF393 cells at 10^-4 to 10^-8 M after 48 hr by SRB assay; settings: RXF 393, 48 h, read-out: pTGI (converted)
HCT-116 = experiment: Cytotoxicity against Homo sapiens (human) HCT116 cells after 48 hr by SRB assay; settings: HCT-116, 48 h
RXF 393 [6] = experiment: Cytotoxicity against Homo sapiens (human) RXF393 cells after 48 hr by SRB assay
NCI-H23 = experiment: Cytotoxicity against Homo sapiens (human) NCI-H23 cells after 48 hr by SRB assay; settings: NCI-H23, 48 h
MDA-MB-231 = experiment: Cytotoxicity against Homo sapiens (human) MDA-MB-231 cells after 48 hr by SRB assay; settings: MDA-MB-231, 48 h
SF-268 [7] = experiment: Cytotoxicity against Homo sapiens (human) SF268 cells at 10^-4 to 10^-8 M after 48 hr by SRB assay; settings: SF-268, 48 h, read-out: pTGI (converted)
ACHN = experiment: Cytotoxicity against Homo sapiens (human) ACHN cells at 10^-4 to 10^-8 M after 48 hr by SRB assay; settings: read-out: pTGI (converted)
NCI-H460 [8] = experiment: Cytotoxicity against Homo sapiens (human) NCI-H460 cells after 48 hr by SRB assay; settings: NCI-H460, 48 h
SF-295 = experiment: Cytotoxicity against Homo sapiens (human) SF295 cells after 48 hr by SRB assay; settings: SF-295, 48 h
IGROV-1 [9] = experiment: Cytotoxicity against Homo sapiens (human) IGROV1 cells at 10^-4 to 10^-8 M after 48 hr by SRB assay; settings: IGROV-1, 48 h, read-out: pTGI (converted)
786-0 = experiment: Cytotoxicity against Homo sapiens (human) 786-0 cells after 48 hr by SRB assay; settings: 786-0, 48 h
NCI-H522 [10] = experiment: Cytotoxicity against Homo sapiens (human) NCI-H522 cells at 10^-4 to 10^-8 M after 48 hr by SRB assay; settings: NCI-H522, 48 h, read-out: pTGI (converted)
HCT-15 = experiment: Cytotoxicity against Homo sapiens (human) HCT15 cells after 48 hr by SRB assay; settings: HCT-15, 48 h
PC-3 [11] = experiment: Cytotoxicity against Homo sapiens (human) PC3 cells assessed as cellular growth at 10^-5 M after 48 hr by SRB assay relative to untreated control
MDA-MB-435 = experiment: Cytotoxicity against Homo sapiens (human) MDA-MB-435 cells at 10^-4 to 10^-8 M after 48 hr by SRB assay; settings: MDA-MB-435, 48 h, read-out: pTGI (converted)
NCI-H460 [12] = experiment: Cytotoxicity against Homo sapiens (human) NCI-H460 cells at 10^-4 to 10^-8 M after 48 hr by SRB assay; settings: NCI-H460, 48 h, read-out: pTGI (converted)
OVCAR-4 = experiment: Cytotoxicity against Homo sapiens (human) OVCAR4 cells after 48 hr by SRB assay; settings: OVCAR-4, 48 h
T47D = experiment: Cytotoxicity against Homo sapiens (human) T47D cells after 48 hr by SRB assay
HCC 2998 = experiment: Cytotoxicity against Homo sapiens (human) HCC2998 cells after 48 hr by SRB assay; settings: HCC 2998, 48 h
MCF7 = experiment: Cytotoxicity against Homo sapiens (human) MCF7 cells after 48 hr by SRB assay; settings: MCF7, 48 h
MOLT-4 [13] = experiment: Cytotoxicity against Homo sapiens (human) MOLT4 cells after 48 hr by SRB assay; settings: MOLT-4, 48 h
LOX IMVI = experiment: Cytotoxicity against Homo sapiens (human) LOXIMVI cells at 10^-4 to 10^-8 M after 48 hr by SRB assay; settings: read-out: pTGI (converted)
SW-620 = experiment: Cytotoxicity against Homo sapiens (human) SW620 cells after 48 hr by SRB assay
PC-3 [14] = experiment: Cytotoxicity against Homo sapiens (human) PC3 cells after 48 hr by SRB assay; settings: PC-3, 48 h
BT-549 = experiment: Cytotoxicity against Homo sapiens (human) BT549 cells after 48 hr by SRB assay; settings: BT-549, 48 h
Malme-3M [15] = experiment: Cytotoxicity against Homo sapiens (human) MALME-3M cells after 48 hr by SRB assay; settings: for CC50: read-out: pLC50 (the source's name) (converted)
SK-MEL-5 = experiment: Cytotoxicity against Homo sapiens (human) SK-MEL-5 cells after 48 hr by SRB assay
K562 [16] = experiment: Cytotoxicity against Homo sapiens (human) K562 cells assessed as cellular growth at 10^-5 M after 48 hr by SRB assay relative to untreated control
Malme-3M [17] = experiment: Cytotoxicity against Homo sapiens (human) MALME-3M cells at 10^-4 to 10^-8 M after 48 hr by SRB assay; settings: read-out: pTGI (converted)
MOLT-4 [18] = experiment: Cytotoxicity against Homo sapiens (human) MOLT4 cells assessed as cellular growth at 10^-5 M after 48 hr by SRB assay relative to untreated control

## COC(=O)[C@]12CCC(C)(C)C[C@H]1C1=CC[C@@H]3[C@@]4(C)CC/C(=N\O)C(C)(C)[C@@H]4CC[C@@]3(C)[C@]1(C)CC2
HL-60(TB)
  GI50: 58.9 µM
K562 [1]
  GI50: 37.2 µM
SF-268 [2]
  GI50: 24 µM
CAKI-1
  GI50: 19.5 µM
NCI-H522 [3]
  GI50: 26.3 µM
  CC50: > 100 µM
SN12C
  GI50: 20.9 µM
A549
  GI50: 28.8 µM
UACC-62
  GI50: 22.4 µM
SK-MEL-2
  GI50: 64.6 µM
IGROV-1 [4]; Homo sapiens, IGROV-1, 48 h
  GI50: 33.9 µM
OVCAR-8
  GI50: 34.7 µM
KM12
  GI50: 38.9 µM
RXF 393 [5]
  TGI: 36.3 µM
HCT-116
  GI50: 29.5 µM
RXF 393 [6]; Homo sapiens, RXF 393, 48 h
  GI50: 18.2 µM
NCI-H23
  GI50: 20 µM
MDA-MB-231
  GI50: 20.4 µM
SF-268 [7]
  TGI: 56.2 µM
ACHN
  TGI: 41.7 µM
NCI-H460 [8]
  GI50: 21.9 µM
SF-295
  GI50: 17.8 µM
IGROV-1 [9]
  TGI: > 100 µM
786-0
  GI50: 17.8 µM
NCI-H522 [10]
  TGI: 66.1 µM
HCT-15
  GI50: 24 µM
PC-3 [11]
  Activity: 38.63%
MDA-MB-435
  TGI: > 100 µM
NCI-H460 [12]
  TGI: 51.3 µM
OVCAR-4
  GI50: 30.2 µM
T47D
  GI50: 25.1 µM
HCC 2998
  GI50: 22.9 µM
MCF7
  GI50: 20.4 µM
MOLT-4 [13]
  GI50: 37.2 µM
LOX IMVI
  TGI: 39.8 µM
SW-620; Homo sapiens, SW-620, 48 h
  GI50: 20 µM
PC-3 [14]
  GI50: 20.4 µM
BT-549
  GI50: 64.6 µM
Malme-3M [15]
  CC50: > 100 µM
SK-MEL-5; Homo sapiens, SK-MEL-5, 48 h
  GI50: 21.4 µM

## CC1(C)CC[C@@]23CC[C@]4(C)[C@@](OC2=O)([C@@H]3C1)[C@@H](Br)C[C@@H]1[C@@]2(C)CC/C(=N\O)C(C)(C)[C@@H]2CC[C@]14C
HL-60(TB)
  GI50: > 100 µM
K562 [1]
  GI50: 56.2 µM
SF-268 [2]
  GI50: 27.5 µM
CAKI-1
  GI50: 28.2 µM
NCI-H522 [3]
  CC50: > 100 µM
K562 [16]
  Activity: 21.17%
SN12C
  GI50: 37.2 µM
A549
  GI50: 17.8 µM
UACC-62
  GI50: 18.6 µM
SK-MEL-2
  GI50: > 100 µM
OVCAR-8
  GI50: 8.51 µM
KM12
  GI50: 8.91 µM
HCT-116
  GI50: 19.1 µM
NCI-H23
  GI50: 38 µM
MDA-MB-231
  GI50: 17.8 µM
SF-268 [7]
  TGI: > 100 µM
ACHN
  TGI: > 100 µM
NCI-H460 [8]
  GI50: 19.1 µM
SF-295
  GI50: 14.1 µM
Malme-3M [17]
  TGI: 23.4 µM
786-0
  GI50: 49 µM
HCT-15
  GI50: 30.9 µM
PC-3 [11]
  Activity: 38.45%
NCI-H460 [12]
  TGI: > 100 µM
OVCAR-4
  GI50: 11.5 µM
T47D
  GI50: 17.4 µM
HCC 2998
  GI50: 81.3 µM
MCF7
  GI50: 11.7 µM
MOLT-4 [13]
  GI50: 14.1 µM
LOX IMVI
  TGI: > 100 µM
SW-620; Homo sapiens, SW-620, 48 h
  GI50: 6.76 µM
PC-3 [14]
  GI50: 40.7 µM
BT-549
  GI50: 9.33 µM
Malme-3M [15]
  GI50: 3.02 µM
  CC50: > 100 µM
SK-MEL-5; Homo sapiens, SK-MEL-5, 48 h
  GI50: 26.3 µM
MOLT-4 [18]
  Activity: 20.29%

## COC(=O)[C@]12CCC(C)(C)C[C@H]1C1=CC[C@@H]3[C@@]4(C)CC/C(=N\OC(=O)/C=C5/SC(=O)NC5=O)C(C)(C)[C@@H]4CC[C@@]3(C)[C@]1(C)CC2
K562 [16]
  Activity: 26.64%
IGROV-1 [4]
  GI50: 8.91 µM and 1.91 µM
RXF 393 [5]
  TGI: 3.55 µM
RXF 393 [6]
  GI50: 6.61 µM and 1.91 µM
SF-268 [7]
  TGI: 10.7 µM
ACHN
  TGI: 3.39 µM
IGROV-1 [9]
  TGI: 4.17 µM
Malme-3M [17]
  TGI: 7.76 µM
NCI-H522 [10]
  TGI: 5.62 µM
MDA-MB-435
  TGI: 9.12 µM
NCI-H460 [12]
  TGI: 9.55 µM
LOX IMVI
  TGI: 3.09 µM
SW-620
  GI50: 7.59 µM and 2 µM
SK-MEL-5
  GI50: 43.7 µM and 5.25 µM
MOLT-4 [18]
  Activity: 2.28%
